According to the supplement of paper PMC13380429:

Tests used:
U2OS [1] = experiment: cell viability relative to DMSO; higher = less toxic; settings: 72 h
Vero E6 [2] = experiment: as above; settings: 72 h
Calu-3 [3] = experiment: as above; settings: 72 h
Caco-2 [4] = experiment: as above; settings: 72 h
HepG2 [5] = experiment: as above; settings: 72 h
[6] = tested on: A549-ACE2 infected with SARS-CoV-2; experiment: morphology score (similarity to uninfected cells); higher = more like uninfected cells; settings: 24 h
[7] = tested on: A549-ACE2 infected with SARS-CoV-2; experiment: cell count relative to DMSO; higher = less toxic; settings: 24 h
A549-ACE2 [8] = experiment: drug-induced phospholipidosis relative to tamoxifen; higher = more phospholipidosis
[9] = tested on: A549-ACE2 infected with SARS-CoV-2; experiment: SARS-CoV-2 infection rate relative to DMSO; higher = more infection; settings: 24 h
U2OS [10] = experiment: drug sensitivity score (DSS) for viability; higher = more toxic; extreme values may be limits of the assay; settings: 72 h
Vero E6 [11] = experiment: as above; settings: 72 h
Calu-3 [12] = experiment: as above; settings: 72 h
Caco-2 [13] = experiment: as above; settings: 72 h
HepG2 [14] = experiment: as above; settings: 72 h
U2OS [15] = experiment: relative viability EC50 (midpoint between 100% and the lowest measured viability); higher = less toxic; settings: 72 h
Vero E6 [16] = experiment: as above; settings: 72 h
Calu-3 [17] = experiment: as above; settings: 72 h
Caco-2 [18] = experiment: as above; settings: 72 h
A549-ACE2 [19] = experiment: phospholipidosis EC50; higher = less potent phospholipidosis inducer
HepG2 [20] = experiment: relative viability EC50 (midpoint between 100% and the lowest measured viability); higher = less toxic; settings: 72 h

CC(=O)c1cc([N+](=O)[O-])c(Sc2ccc(F)cc2F)s1
Settings | SARS-CoV-2 infection rate, [9] [%] | cell count, [7] [%] | cell viability, Caco-2 [4] [%] | cell viability, Calu-3 [3] [%] | cell viability, HepG2 [5] [%] | cell viability, U2OS [1] [%] | cell viability, Vero E6 [2] [%] | morphology score, [6]
1 nM | – | – | 98 | 91 | 110 | 95.3 | 108 | –
10 nM | – | – | 96.6 | 95.3 | 105 | 99.3 | 98.8 | –
100 nM | – | – | 103 | 105 | 106 | 95.2 | 101 | –
0.3 µM | 98 | 99 | – | – | – | – | – | 0.06
1000 nM | – | – | 87.4 | 98.6 | 100 | 101 | 98.1 | –
3 µM | 106 | 100 | – | – | – | – | – | -0.18
10000 nM | – | – | 31.8 | 101 | 58.5 | 80 | 95.6 | –
10 µM | 71 | 81 | – | – | – | – | – | 0.38
30 µM | 55 | 58 | – | – | – | – | – | 0.17

drug-induced phospholipidosis [%], A549-ACE2 [8]
Settings | 0.3 µM | 0.833333 µM | 3.33333 µM | 6.66667 µM | 30 µM
24 h | 3.19 | -2.16 | 10.1 | 11.8 | 19.3
48 h | 2.73 | -1.61 | 2.36 | 16.5 | –
72 h | 0.714 | -1.68 | -2.13 | 11.8 | 23.5

Settings | drug sensitivity score | relative viability EC50 [µM]
Caco-2 [13] | 5.8 | –
Caco-2 [18] | – | 1.81
Calu-3 [12] | 0 | –
Calu-3 [17] | – | > 10
HepG2 [14] | 2.1 | –
U2OS [10] | 0.5 | –
U2OS [15] | – | > 10
Vero E6 [11] | 0 | –
Vero E6 [16] | – | > 10

CC(C)c1ccc(C(=O)c2cccs2)c(SCCCCCCCCN(C)C)n1
Settings | SARS-CoV-2 infection rate [%] | cell count [%] | cell viability [%] | morphology score | phospholipidosis EC50 [µM]
A549-ACE2 [19], 24 h | – | – | – | – | 2.88
A549-ACE2 [19], 48 h | – | – | – | – | 2.9
A549-ACE2 [19], 72 h | – | – | – | – | 4.11
Caco-2 [4], 1 nM | – | – | 106 | – | –
Caco-2 [4], 10 nM | – | – | 91.6 | – | –
Caco-2 [4], 100 nM | – | – | 97.6 | – | –
Caco-2 [4], 1000 nM | – | – | 94.6 | – | –
Caco-2 [4], 10000 nM | – | – | 47.3 | – | –
Calu-3 [3], 1 nM | – | – | 101 | – | –
Calu-3 [3], 10 nM | – | – | 120 | – | –
Calu-3 [3], 100 nM | – | – | 97.4 | – | –
Calu-3 [3], 1000 nM | – | – | 106 | – | –
Calu-3 [3], 10000 nM | – | – | 27.9 | – | –
HepG2 [5], 1 nM | – | – | 97.9 | – | –
HepG2 [5], 10 nM | – | – | 94.6 | – | –
HepG2 [5], 100 nM | – | – | 109 | – | –
HepG2 [5], 1000 nM | – | – | 103 | – | –
HepG2 [5], 10000 nM | – | – | 29.4 | – | –
U2OS [1], 1 nM | – | – | 99.4 | – | –
U2OS [1], 10 nM | – | – | 95.9 | – | –
U2OS [1], 100 nM | – | – | 101 | – | –
U2OS [1], 1000 nM | – | – | 98.9 | – | –
U2OS [1], 10000 nM | – | – | 71.6 | – | –
Vero E6 [2], 1 nM | – | – | 100 | – | –
Vero E6 [2], 10 nM | – | – | 99.8 | – | –
Vero E6 [2], 100 nM | – | – | 101 | – | –
Vero E6 [2], 1000 nM | – | – | 94.6 | – | –
Vero E6 [2], 10000 nM | – | – | 78.4 | – | –
[6], 0.1 µM | – | – | – | -0.04 | –
[6], 0.3 µM | – | – | – | 0.17 | –
[6], 1 µM | – | – | – | 0.57 | –
[6], 3 µM | – | – | – | 0.88 | –
[7], 0.1 µM | – | 98 | – | – | –
[7], 0.3 µM | – | 101 | – | – | –
[7], 1 µM | – | 111 | – | – | –
[7], 3 µM | – | 123 | – | – | –
[9], 0.1 µM | 99 | – | – | – | –
[9], 0.3 µM | 95 | – | – | – | –
[9], 1 µM | 74 | – | – | – | –
[9], 3 µM | 23 | – | – | – | –

drug-induced phospholipidosis [%], A549-ACE2 [8]
Settings | 0.3 µM | 0.833333 µM | 3.33333 µM | 6.66667 µM | 10 µM | 30 µM
24 h | 6.35 | 10.2 | 76.1 | 105 | 129 | 33.4
48 h | 4.72 | 6.5 | 79.5 | 112 | 127 | –
72 h | 0.841 | 8.09 | 57.5 | 114 | 131 | –

Settings | drug sensitivity score | relative viability EC50 [µM]
Caco-2 [13] | 3.7 | –
Caco-2 [18] | – | 2.32
Calu-3 [12] | 3.6 | –
Calu-3 [17] | – | 3.55
HepG2 [14] | 3.6 | –
HepG2 [20] | – | 3.39
U2OS [10] | 1.3 | –
Vero E6 [11] | 1.4 | –
Vero E6 [16] | – | > 10

COc1cc(-c2cc(-c3cccc(O)c3)cnc2N)cc(OC)c1OC
Settings | SARS-CoV-2 infection rate, [9] [%] | cell count, [7] [%] | cell viability, Caco-2 [4] [%] | cell viability, Calu-3 [3] [%] | cell viability, HepG2 [5] [%] | cell viability, U2OS [1] [%] | cell viability, Vero E6 [2] [%] | morphology score, [6]
1 nM | – | – | 101 | 87.7 | 94.1 | 95.8 | 99.7 | –
10 nM | – | – | 103 | 93.6 | 94.6 | 93.7 | 103 | –
100 nM | – | – | 105 | 92.3 | 93.8 | 101 | 97.4 | –
0.3 µM | 101 | 100 | – | – | – | – | – | 0.01
1000 nM | – | – | 101 | 87.6 | 98.4 | 91 | 106 | –
3 µM | 103 | 99 | – | – | – | – | – | 0.39
10000 nM | – | – | 79.4 | 84.6 | 74.8 | 64.5 | 99 | –
10 µM | 93 | 105 | – | – | – | – | – | 0.31
30 µM | 91 | 84 | – | – | – | – | – | 0.16

drug-induced phospholipidosis [%], A549-ACE2 [8]
Settings | 0.3 µM | 0.833333 µM | 3.33333 µM | 6.66667 µM | 10 µM | 30 µM
24 h | 4 | 3.08 | 6.21 | 12 | 15.9 | 47.9
48 h | 3.78 | 1.52 | 1.5 | 4.27 | 9.43 | 62.2
72 h | 4.57 | 0.15 | 0.0757 | 1.61 | 5.86 | 65.7

Settings | drug sensitivity score | relative viability EC50 [µM]
Caco-2 [13] | 0.6 | –
Caco-2 [18] | – | > 10
Calu-3 [12] | 0 | –
Calu-3 [17] | – | > 10
HepG2 [14] | 1.2 | –
U2OS [10] | 3.1 | –
Vero E6 [11] | 0 | –
Vero E6 [16] | – | > 10

COc1cc(COc2cc(N)c(Cl)cc2C(=O)CCC2CCN(CCNS(C)(=O)=O)CC2)cc(OC)c1
Settings | SARS-CoV-2 infection rate [%] | cell count [%] | cell viability [%] | morphology score | phospholipidosis EC50 [µM]
A549-ACE2 [19], 24 h | – | – | – | – | 10.8
Caco-2 [4], 1 nM | – | – | 107 | – | –
Caco-2 [4], 10 nM | – | – | 102 | – | –
Caco-2 [4], 100 nM | – | – | 95.9 | – | –
Caco-2 [4], 1000 nM | – | – | 110 | – | –
Caco-2 [4], 10000 nM | – | – | 88.3 | – | –
Calu-3 [3], 1 nM | – | – | 99 | – | –
Calu-3 [3], 10 nM | – | – | 106 | – | –
Calu-3 [3], 100 nM | – | – | 94.6 | – | –
Calu-3 [3], 1000 nM | – | – | 105 | – | –
Calu-3 [3], 10000 nM | – | – | 98.6 | – | –
HepG2 [5], 1 nM | – | – | 95 | – | –
HepG2 [5], 10 nM | – | – | 102 | – | –
HepG2 [5], 100 nM | – | – | 98.8 | – | –
HepG2 [5], 1000 nM | – | – | 92.5 | – | –
HepG2 [5], 10000 nM | – | – | 73.1 | – | –
U2OS [1], 1 nM | – | – | 98.8 | – | –
U2OS [1], 10 nM | – | – | 96.2 | – | –
U2OS [1], 100 nM | – | – | 100 | – | –
U2OS [1], 1000 nM | – | – | 101 | – | –
U2OS [1], 10000 nM | – | – | 58.7 | – | –
Vero E6 [2], 1 nM | – | – | 96.8 | – | –
Vero E6 [2], 10 nM | – | – | 97.8 | – | –
Vero E6 [2], 100 nM | – | – | 93.3 | – | –
Vero E6 [2], 1000 nM | – | – | 96.1 | – | –
Vero E6 [2], 10000 nM | – | – | 29.4 | – | –
[6], 0.1 µM | – | – | – | -0.18 | –
[6], 0.3 µM | – | – | – | -0.13 | –
[6], 1 µM | – | – | – | 0.08 | –
[6], 3 µM | – | – | – | 0.56 | –
[7], 0.1 µM | – | 97 | – | – | –
[7], 0.3 µM | – | 102 | – | – | –
[7], 1 µM | – | 105 | – | – | –
[7], 3 µM | – | 118 | – | – | –
[9], 0.1 µM | 106 | – | – | – | –
[9], 0.3 µM | 102 | – | – | – | –
[9], 1 µM | 93 | – | – | – | –
[9], 3 µM | 69 | – | – | – | –

drug-induced phospholipidosis [%], A549-ACE2 [8]
Settings | 0.3 µM | 0.833333 µM | 3.33333 µM | 6.66667 µM | 10 µM | 30 µM
24 h | 7 | -3.07 | 1.58 | 15.2 | 28.5 | 59.3
48 h | 8.74 | 0.25 | 7.6 | 19.6 | 29.2 | –
72 h | 9.15 | 2.57 | 12.6 | 21.2 | 34.8 | –

Settings | drug sensitivity score | relative viability EC50 [µM]
Caco-2 [13] | 0 | –
Caco-2 [18] | – | > 10
Calu-3 [12] | 0 | –
Calu-3 [17] | – | > 10
HepG2 [14] | 2.1 | –
U2OS [10] | 2 | –
Vero E6 [11] | 4.4 | –
Vero E6 [16] | – | 2.74
